Article PMC7808747, “Design, synthesis, and in vitro evaluation of BP-1-102 analogs with modified hydrophobic fragments for STAT3 inhibition” (Journal of Enzyme Inhibition and Medicinal Chemistry, 2021)
“Also recorded” adds a separate entry of the source. Like-named read-outs stand apart in the source and are kept apart here.

Experiments:
[1] = tested on: human breast cancer MDA-MB-231 cell line; assay: Resazurin cytotoxicity assay, MDA-MB-231; type: cell-based; conditions: for cytotoxic effect in MDA-MB-231 (in words): 0, 5, 10, 20, 50 µM
Procedure: (§1) The cells were treated with the compounds at concentrations 0, 5, 10, 20, and 50 µM for 24 h, and the cytotoxicity was estimated by the resazurin assay.
To estimate IC50 of 6 and 14, MDA-MB-231 cells were treated with 1 (0, 2, 5, 10, 15, 20, 25, 30, 40, and 50 µM), 6 (0, 5, 10, 20, 25, 30, 40, 50, 70, and 100 µM), and 14 (0, 20, 40, 50, 60, 70, 80, 100, 150, and 200 µM) for 24 h.
(§2) The resazurin reduction assay[34] was performed as described previously. Briefly, cells were seeded onto a 96-well plate (2000 cells per well) in hexaplicate and the following day treated with the tested compounds (dissolved in DMSO as 50 mM stock) in a concentration range as indicated. After 24 h, 200 μl of culture medium of each well was exchanged for 100 μl of resazurin (stock 30 mg/ml; Sigma, St. Louis, MO) diluted 10 times in the culture medium, and the cells were incubated at 37 °C for 1–3 h. Reading of fluorescence was done using an Envision reader (PerkinElmer, Waltham, MA). Absolute values of fluorescence were related to the values of control/untreated cells. To estimate the cytotoxic concentration (half maximal inhibitory concentration, IC50), log-scale data were processed in GraphPad Prism software (La Jolla, CA) using nonlinear fit curve.

[2] = tested on: prostate carcinoma DU-145; assay: Resazurin cytotoxicity assay, DU-145; conditions: Homo sapiens, DU-145, read-out: IC50±SD DU-145
Procedure: (§3) Furthermore, the cytotoxicity of compound 6 was compared to BP-1-102 (1) in human glioblastoma cell lines U-87 and T98 in concentration range 0–80 µM for 24 h using the crystal violet assay.
as §2

[3] = tested on: RPE-1; assay: Resazurin assay, RPE-1 (Table 2); type: cell-based; conditions: Homo sapiens, resazurin assay (footnote a), read-out: IC50±SD RPE-1
Procedure: The resazurin reduction assay[34] was performed as described previously[38]. Briefly, cells were seeded onto a 96-well plate (2000 cells per well) in hexaplicate and the following day treated with the tested compounds (dissolved in DMSO as 50 mM stock) in a concentration range as indicated. After 24 h, 200 μl of culture medium of each well was exchanged for 100 μl of resazurin (stock 30 mg/ml; Sigma, St. Louis, MO) diluted 10 times in the culture medium, and the cells were incubated at 37 °C for 1–3 h. Reading of fluorescence was done using an Envision reader (PerkinElmer, Waltham, MA). Absolute values of fluorescence were related to the values of control/untreated cells. To estimate the cytotoxic concentration (half maximal inhibitory concentration, IC50), log-scale data were processed in GraphPad Prism software (La Jolla, CA) using nonlinear fit curve.

[4] = tested on: mouse lung TC-1 cancer cell line; assay: MTT cytotoxicity assay, TC-1; type: cell-based; conditions: for IC50: Mus musculus, read-out: IC50±SD TC-1; for cytotoxic effect in TC-1 (in words): 0–50 µM, 24 h
Procedure: (§4) Cells were seeded at the density of 2000 cells per well (96-well F microplates; Nunc, Roskilde, Denmark). The following day, the tested compounds were added. In the next 24 h, MTT (3-(4,5-dimethylthiazol-2-yl)-2,5-diphenyltetrazolium bromide) was added. After 6 h, DMF (dimethylformamide) was added, and after additional 24 h, absorbance was measured at 560 nm by a microplate reader.

[5] = tested on: mouse prostate TRAMP-C2 cancer cell line; assay: MTT cytotoxicity assay, TRAMP-C2; type: cell-based; conditions: for IC50: Mus musculus, read-out: IC50±SD TRAMP-C2; for cytotoxic effect in TRAMP-C2 (in words): 0–50 µM, 24 h
Procedure: as §4

[6] = tested on: MDA-MB-231 cells; assay: Annexin V / propidium iodide FACS, MDA-MB-231; type: cell-based, human; conditions: MDA-MB-231, 0, 5, 10, 20, 50 µM, 24 h
Procedure: (§6) Cells were harvested by centrifugation, resuspended in cold PBS and again centrifuged. Cell pellets were then resuspended in Annexin V Binding Buffer (ApoFlowEx FITC Kit, ED7044, Exbio, Vestec, Czech Republic), annexin V-APC and PI were added to the cell pellet and mixed. Cells were incubated in the dark at room temperature for 15 min. After the incubation, cells were centrifuged, resuspended in Annexin V Binding Buffer and analysed by flow cytometry. Five thousand cells per sample were measured by analysing annexin V and PI using a BD FACSVerse™ flow cytometer (BD Biosciences, Franklin Lakes, NJ). Data were analysed using FlowJo 10 software (FlowJo LLC, Ashland, OR), and the percentage of viable (annexin V-negative/PI-negative) cells relative to control was plotted.

[7] = tested on: TRAMP-C2 cells; assay: Annexin V / propidium iodide FACS, TRAMP-C2; type: cell-based, mouse; conditions: TRAMP-C2, 24 h
Procedure: as §6

[8] = tested on: STAT3 Y705 phosphorylation (pY705); assay: STAT3 pY705 immunoblotting, MDA-MB-231; type: cell-based, human; conditions: MDA-MB-231, micromolar concentration range, 4 h
Procedure: The cells were exposed to BP-1-102 (1), compounds 6 and 14 in a micromolar concentration range for 4 h, and then the levels of STAT3 pY705 and total STAT3 were probed by immunoblotting with specific antibodies. […] It can be concluded that both novel compounds 6 and 14 manifested inhibitory effects on receptor-mediated phosphorylation of Y705 of STAT3 in both human and mouse cell lines.
Cells were washed three times with PBS, harvested into 95 °C-heated Laemmli SDS sample lysis buffer (2% SDS, 50 mM Tris–Cl, 10% glycerol in double distilled H2O) and sonicated at 3 μm amplitude for 3 × 10 or 3 × 30 s with 10 or 30 s cooling intervals in a Soniprep 150 (MSE, London, UK) or Diagenode Bioruptor 300 (Diagenode, Liege, Belgium) for human and murine cell lines, respectively. Concentration of proteins was estimated by the Pierce^TM BCA Protein Assay (Thermo Scientific, Waltham, MA). DTT (100 mM) and 0.01% bromophenol blue were added to the lysates before separation by SDS-PAGE (10% gels were used). Equal protein amounts (40 or 35 μg for human or murine cell lines, respectively) were loaded into each well. Proteins were electrotransferred onto a nitrocellulose membrane (Amersham^TM Protran^TM 0.45 µm NC, GE Healthcare, Chalfont St Giles, UK) using wet transfer and detected by specific antibodies (at 4 °C overnight) combined with HRP-conjugated secondary antibodies. Peroxidase activity was detected by Amersham^TM ECL Western Blotting Detection Reagents (GE Healthcare, Chalfont St Giles, UK). GAPDH was used as a loading control.

[9] = tested on: TC-1 cells; assay: Annexin V / propidium iodide FACS, TC-1; conditions: TC-1, 24 h
Procedure: as §6

[10] = tested on: human breast adenocarcinoma MCF-7; assay: Resazurin cytotoxicity assay, MCF-7; conditions: Homo sapiens, MCF7, read-out: IC50±SD MCF-7
Procedure: as §3, §2

[11] = tested on: human immortalised retinal pigment epithelium RPE-1; assay: Crystal violet assay, RPE-1; conditions: 0–50 µM, 24 h
Procedure: as §1
(§5) To determine cell viability by crystal violet assay, cells were seeded in 96-well plates at densities of 3000 (RPE-1), 5000 (U373 and T98-G), and 8000 (U-87 MG) cells per well. The next day the cells were treated with the tested compounds in triplicate in a concentration range as indicated. After 24 h, the cells in each well were washed twice with 150 µl PBS and then stained in 30 µl 0.5% w/v crystal violet in 20% methanol for 15 min. Plates were washed three times with double distilled H2O and left to dry overnight. Crystal violet was solubilised with 75 µl 0.2% Triton X-100 (Sigma, St. Louis, MO) in PBS for 15 min. Absorbance of crystal violet was measured at 595 nm using a microplate reader (Multiskan EX, Thermo Electron Corporation, Waltham, MA). Absorbance of the treated samples was expressed as a percentage of absorbance of untreated cells.

[12] = tested on: human glioblastoma U373; assay: Crystal violet assay, U373; conditions: 0–50 µM, 24 h
Procedure: as §1, §5

[13] = tested on: human glioblastoma cell line T98; assay: Crystal violet assay, T98; conditions: 0–80 µM, 24 h, compared to U-87 cells
Procedure: as §3, §5

[14] = Homo sapiens, MDA-MB-231, 24 h, resazurin assay, 24 h, read-out: IC50±SD MDA-MB-231

Compound CN(CC(=O)N(Cc1ccc(C2CCCCC2)cc1)c1ccc(C(=O)O)c(O)c1)S(=O)(=O)c1c(F)c(F)c(F)c(F)c1F [BP-1-102 (1), 4-(N-(4-Cyclohexylbenzyl)-2-(2,3,4,5,6-pentafluoro-N-methylphenylsulfonamido)acetamido)-2-hydroxybenzoic acid, reference compound] has an IC50 ([1]; Homo sapiens, MDA-MB-231, 24 h, read-out: IC50±SD MDA-MB-231, resazurin assay, 24 h) of 15 µM, an IC50 ([1]; read-out: IC50±SD MDA-MB-231, resazurin assay, 24 h) of 15 ± 3.7 µM and an IC50 [2] of 18 ± 8.3 µM. For the same compound, the IC50 [3] was 13.9 ± 0.2 µM, the IC50 [4] was 7.8 ± 1.1 µM and the IC50 [5] was 7.9 ± 4.5 µM. For the same compound, the “cell death induction (annexin V/PI, FACS)” value [6] was “cell death induction was confirmed”, the “cytotoxicity by annexin V/PI staining and FACS” value [7] was “confirmed” and the “inhibition of constitutive STAT3 Y705 phosphorylation” value [8] was “inhibited constitutive STAT3 phosphorylation”. The “cytotoxicity by annexin V/PI staining and FACS” value [9] was “confirmed”.
In the case of Cc1ccc(S(=O)(=O)N(C)CC(=O)N(Cc2ccccc2)c2ccc(C(=O)O)c(O)c2)cc1 [Compound 3, 4-(N-(Benzyl)-2-(N-methyl-N-(p-toluenesulfonyl))acetamido)-2-hydroxybenzoic acid], the “cytotoxic effect in MDA-MB-231 (in words)” value ([1]; 24 h, resazurin assay) is reported as “lacking any significant cytotoxicity; also recorded: complete loss of cytotoxic activity”.
CN(CC(=O)N(Cc1ccccc1)c1ccc(C(=O)O)c(O)c1)S(=O)(=O)c1c(F)c(F)c(F)c(F)c1F [Compound 4, 4-(N-(Benzyl)-2-(2,3,4,5,6-pentafluoro-N-methylphenylsulfonamido)acetamido)-2-hydroxybenzoic acid] was tested, and the “cytotoxic effect in MDA-MB-231 (in words)” value ([1]; 24 h, resazurin assay) was “mild-to-negligible cytotoxicity”, the IC50 [1, 14] was > 50 µM and the IC50 [2] was > 50 µM. For the same compound, the IC50 [10] was > 50 µM and the IC50 [3] was > 50 µM.
Cc1ccc(S(=O)(=O)N(C)CC(=O)N(Cc2ccc(C(C)(C)C)cc2)c2ccc(C(=O)O)c(O)c2)cc1 [Compound 5, 4-(N-(4-tert-Butylbenzyl)-2-(N-methyl-N-(p-toluenesulfonyl))acetamido)-2-hydroxybenzoic acid] was tested, and the “cytotoxic effect in MDA-MB-231 (in words)” value ([1]; 24 h, resazurin assay) was “mild-to-negligible cytotoxicity; also recorded: complete loss of cytotoxic activity”.
For CN(CC(=O)N(Cc1ccc(C(C)(C)C)cc1)c1ccc(C(=O)O)c(O)c1)S(=O)(=O)c1c(F)c(F)c(F)c(F)c1F [Compound 6, 4-(N-(4-tert-Butylbenzyl)-2-(2,3,4,5,6-pentafluoro-N-methylphenylsulfonamido)acetamido)-2-hydroxybenzoic acid], the IC50 [1, 14] was 26.2 µM, the “concentration from which the compound was cytotoxic” value ([1]; MDA-MB-231, 24 h, resazurin assay) was 10 µM and the IC50 ([1]; resazurin assay, 24 h, read-out: IC50±SD MDA-MB-231) was 26.2 ± 5.6 µM. The IC50 [2] was 34 ± 2.6 µM, the IC50 [10] was 19.6 ± 3.6 µM and the IC50 [3] was 24.5 ± 2.6 µM. For the same compound, the “cytotoxic effect in TC-1 (in words)” value [4] was “cytotoxic activity comparable to BP-1-102 (1)”, the IC50 [4] was 6.2 ± 1.1 µM and the “cytotoxic effect in TRAMP-C2 (in words)” value ([5]; MTT assay) was “cytotoxic activity comparable to BP-1-102 (1)”. For the same compound, the IC50 ([5]; MTT assay) was 14.5 ± 13.4 µM, the “cytotoxic activity in RPE-1 (in words)” value [11] was “concentration-dependent cytotoxic activity” and the “cytotoxic activity in U373 (in words)” value [12] was “concentration-dependent cytotoxic activity”. The “cytotoxicity in T98 (in words)” value [13] was “remarkable resistance”, the “cell death induction (annexin V/PI, FACS)” value [6] was “cell death induction was confirmed” and the “cytotoxicity by annexin V/PI staining and FACS” value [7] was “confirmed”. For the same compound, the “inhibition of constitutive STAT3 Y705 phosphorylation” value [8] was “inhibited constitutive STAT3 phosphorylation” and the “cytotoxicity by annexin V/PI staining and FACS” value [9] was “confirmed”.
With COc1ccc(CN(C(=O)CN(C)S(=O)(=O)c2c(F)cc(F)cc2F)c2ccc(C(=O)O)c(O)c2)cc1 [Compound 7, 4-(N-(4-Methoxybenzyl)-2-(2,4,6-trifluoro-N-methylphenylsulfonamido)acetamido)-2-hydroxybenzoic acid] the “cytotoxic effect in MDA-MB-231 (in words)” value ([1]; 24 h, resazurin assay) was “lacking any significant cytotoxicity; also recorded: complete loss of cytotoxic activity”.
With COc1ccc(CN(C(=O)CN(C)S(=O)(=O)c2c(F)c(F)c(F)c(F)c2F)c2ccc(C(=O)O)c(O)c2)cc1 [Compound 8, 4-(N-(4-Methoxybenzyl)-2-(2,3,4,5,6-pentafluoro-N-methylphenylsulfonamido)acetamido)-2-hydroxybenzoic acid] the “cytotoxic effect in MDA-MB-231 (in words)” value ([1]; 24 h, resazurin assay) was “lacking any significant cytotoxicity; also recorded: no cytotoxic activity”, the “cytotoxic effect in TC-1 (in words)” value [4] was “mild cytotoxic effect; also recorded: mild cytotoxicity” and the “cytotoxic effect in TRAMP-C2 (in words)” value ([5]; MTT assay) was “mild cytotoxic effect; also recorded: mild cytotoxicity”. For the same compound, the “cytotoxic activity in U373 (in words)” value [12] was “no cytotoxic activity”.
CN(CC(=O)N(Cc1ccc(C(F)(F)F)cc1)c1ccc(C(=O)O)c(O)c1)S(=O)(=O)c1ccccc1 [Compound 9, 4-(N-(4-Trifluoromethylbenzyl)-2-(N-methylphenylsulfonyl)acetamido)-2-hydroxybenzoic acid] was tested, and the “cytotoxic effect in MDA-MB-231 (in words)” value ([1]; 24 h, resazurin assay) was “complete loss of cytotoxic activity”.
